These results are taken from ChEMBL document CHEMBL1129719, “The synthesis of a radioligand with high potency and selectivity for CCKB/ gastrin receptors” (Bioorg Med Chem Lett, 1996).

Experiment [1] is filed under the species Rattus norvegicus. Description: pKD value in rat cerebral cortical membranes. In kind it is functional.
Experiment [2] is filed under the species Rattus norvegicus. Description: Bmax value was determined in rat cerebral cortical membranes.
The target of experiment [3] is T1, Gastrin/cholecystokinin type B receptor (Rattus norvegicus, UniProt P30553).
T1 sequence (P30553 whole entry): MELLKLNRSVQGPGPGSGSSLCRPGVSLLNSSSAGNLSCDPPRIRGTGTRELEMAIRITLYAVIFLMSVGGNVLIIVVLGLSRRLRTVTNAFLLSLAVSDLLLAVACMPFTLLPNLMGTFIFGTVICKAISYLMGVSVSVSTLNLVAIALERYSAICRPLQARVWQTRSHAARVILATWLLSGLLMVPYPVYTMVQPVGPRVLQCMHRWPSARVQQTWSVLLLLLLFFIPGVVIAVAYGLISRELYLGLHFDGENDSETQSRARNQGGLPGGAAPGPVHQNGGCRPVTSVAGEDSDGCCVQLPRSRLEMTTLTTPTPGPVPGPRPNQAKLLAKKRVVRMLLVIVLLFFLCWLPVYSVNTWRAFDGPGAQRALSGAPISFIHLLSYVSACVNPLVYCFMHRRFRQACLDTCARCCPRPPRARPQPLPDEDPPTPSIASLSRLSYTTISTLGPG
The experiment can be described thus: Compound was tested for binding affinity against Cholecystokinin type B receptor in rat cortical membranes using L-365260 as the radioligand. The format is cell membranes.

Take `O=C(O)c1cc(NC(=O)[C@H](Cc2ccccc2)NC(=O)c2cc3cc[nH]c3cc2C(=O)NCC23CC4CC(CC(C4)C2)C3)cc(C(=O)O)c1`: in experiment [1], the pKD (as a rule, the negative decadic logarithm of the KD, by convention in mol/L) is 9.48. Also, in experiment [2], the Bmax was 3.61 pM/g. The Ki (in general, the dissociation constant of the complex between target and ligand, obtained from inhibition or displacement) in experiment [3] is 23.4 nM.
